Measurements published in patent US10863748B2, “Antibacterial products and processes for preparing antibacterial products from maple syrup” (priority 2016, dated 2020).

Tested on: three bacteria and one yeast
Experiment: Antimicrobial effect of melamine per se
Assay type: cell-based

`Nc1nc(N)nc(N)n1` [melamine, 2,4,6-triamino-1,3,5-triazine] was tested, and the antimicrobial effect was “did not exhibit any antimicrobial effect”.
